Columns and labels:
Assay in all cases: Enzyme Assay
PIK3CG (human) = PIK3CG (human) (UniProt P48736)
PIK3CD (Human) = PIK3CD (Human) (UniProt O00329)
PIK3CB (Human) = PIK3CB (Human) (UniProt P42338)
Sequence of PIK3CB (Human) (P42338 whole entry, looked up): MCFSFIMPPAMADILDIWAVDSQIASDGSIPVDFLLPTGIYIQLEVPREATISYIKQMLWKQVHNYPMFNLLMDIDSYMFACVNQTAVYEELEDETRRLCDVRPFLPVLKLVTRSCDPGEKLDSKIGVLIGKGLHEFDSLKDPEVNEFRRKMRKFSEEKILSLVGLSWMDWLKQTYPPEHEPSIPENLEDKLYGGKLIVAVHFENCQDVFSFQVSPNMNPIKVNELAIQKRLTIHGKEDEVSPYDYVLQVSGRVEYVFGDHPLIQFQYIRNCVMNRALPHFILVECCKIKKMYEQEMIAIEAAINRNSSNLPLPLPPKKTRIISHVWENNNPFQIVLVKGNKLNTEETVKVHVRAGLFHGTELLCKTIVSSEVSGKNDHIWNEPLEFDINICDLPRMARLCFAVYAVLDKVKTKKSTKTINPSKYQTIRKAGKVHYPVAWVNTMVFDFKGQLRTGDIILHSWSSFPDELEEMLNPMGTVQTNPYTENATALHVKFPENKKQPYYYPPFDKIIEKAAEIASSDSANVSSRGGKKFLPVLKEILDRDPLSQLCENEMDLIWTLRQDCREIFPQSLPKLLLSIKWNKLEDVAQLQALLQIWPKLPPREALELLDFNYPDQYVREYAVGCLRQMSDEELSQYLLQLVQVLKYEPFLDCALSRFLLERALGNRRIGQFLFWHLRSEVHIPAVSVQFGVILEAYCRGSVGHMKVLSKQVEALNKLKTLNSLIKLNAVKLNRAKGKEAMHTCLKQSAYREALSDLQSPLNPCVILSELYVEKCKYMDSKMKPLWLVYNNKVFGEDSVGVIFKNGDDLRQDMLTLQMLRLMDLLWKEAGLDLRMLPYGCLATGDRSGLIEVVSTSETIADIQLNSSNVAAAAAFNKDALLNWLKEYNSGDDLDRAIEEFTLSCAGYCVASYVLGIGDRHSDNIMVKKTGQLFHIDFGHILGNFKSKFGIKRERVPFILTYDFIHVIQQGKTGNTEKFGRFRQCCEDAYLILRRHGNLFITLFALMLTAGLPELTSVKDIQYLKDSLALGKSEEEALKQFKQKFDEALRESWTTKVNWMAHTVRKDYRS

Sequence of PIK3CG (human) (P48736 whole entry, looked up): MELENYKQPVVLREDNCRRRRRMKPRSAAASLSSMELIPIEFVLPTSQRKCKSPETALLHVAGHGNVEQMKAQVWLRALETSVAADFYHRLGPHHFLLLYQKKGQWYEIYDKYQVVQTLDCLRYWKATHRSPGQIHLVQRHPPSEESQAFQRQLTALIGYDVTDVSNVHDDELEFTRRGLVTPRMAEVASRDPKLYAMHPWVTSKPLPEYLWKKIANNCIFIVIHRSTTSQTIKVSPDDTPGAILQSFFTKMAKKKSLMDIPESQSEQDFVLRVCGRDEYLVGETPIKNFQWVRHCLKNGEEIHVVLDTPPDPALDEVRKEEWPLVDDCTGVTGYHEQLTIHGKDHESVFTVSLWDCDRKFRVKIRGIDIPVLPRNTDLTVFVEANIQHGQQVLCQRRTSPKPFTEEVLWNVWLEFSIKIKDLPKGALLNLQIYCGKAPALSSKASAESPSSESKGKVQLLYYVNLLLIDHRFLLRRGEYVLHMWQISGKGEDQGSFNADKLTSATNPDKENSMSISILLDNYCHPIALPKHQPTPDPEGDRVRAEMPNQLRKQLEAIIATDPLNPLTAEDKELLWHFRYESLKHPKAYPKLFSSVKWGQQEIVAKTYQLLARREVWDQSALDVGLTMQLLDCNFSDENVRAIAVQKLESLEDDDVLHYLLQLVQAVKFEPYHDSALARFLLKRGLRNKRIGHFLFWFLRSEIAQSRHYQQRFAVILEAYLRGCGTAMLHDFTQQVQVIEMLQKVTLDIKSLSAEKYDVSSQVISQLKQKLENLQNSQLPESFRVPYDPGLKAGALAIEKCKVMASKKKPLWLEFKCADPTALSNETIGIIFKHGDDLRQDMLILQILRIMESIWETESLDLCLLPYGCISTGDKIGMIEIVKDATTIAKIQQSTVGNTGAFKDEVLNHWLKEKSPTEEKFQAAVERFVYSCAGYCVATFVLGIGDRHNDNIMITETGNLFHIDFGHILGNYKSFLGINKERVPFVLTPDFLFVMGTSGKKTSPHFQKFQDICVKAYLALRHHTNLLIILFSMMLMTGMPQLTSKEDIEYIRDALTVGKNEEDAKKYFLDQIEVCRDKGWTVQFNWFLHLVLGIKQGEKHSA
Sequence of PIK3CD (Human) (O00329 whole entry, looked up): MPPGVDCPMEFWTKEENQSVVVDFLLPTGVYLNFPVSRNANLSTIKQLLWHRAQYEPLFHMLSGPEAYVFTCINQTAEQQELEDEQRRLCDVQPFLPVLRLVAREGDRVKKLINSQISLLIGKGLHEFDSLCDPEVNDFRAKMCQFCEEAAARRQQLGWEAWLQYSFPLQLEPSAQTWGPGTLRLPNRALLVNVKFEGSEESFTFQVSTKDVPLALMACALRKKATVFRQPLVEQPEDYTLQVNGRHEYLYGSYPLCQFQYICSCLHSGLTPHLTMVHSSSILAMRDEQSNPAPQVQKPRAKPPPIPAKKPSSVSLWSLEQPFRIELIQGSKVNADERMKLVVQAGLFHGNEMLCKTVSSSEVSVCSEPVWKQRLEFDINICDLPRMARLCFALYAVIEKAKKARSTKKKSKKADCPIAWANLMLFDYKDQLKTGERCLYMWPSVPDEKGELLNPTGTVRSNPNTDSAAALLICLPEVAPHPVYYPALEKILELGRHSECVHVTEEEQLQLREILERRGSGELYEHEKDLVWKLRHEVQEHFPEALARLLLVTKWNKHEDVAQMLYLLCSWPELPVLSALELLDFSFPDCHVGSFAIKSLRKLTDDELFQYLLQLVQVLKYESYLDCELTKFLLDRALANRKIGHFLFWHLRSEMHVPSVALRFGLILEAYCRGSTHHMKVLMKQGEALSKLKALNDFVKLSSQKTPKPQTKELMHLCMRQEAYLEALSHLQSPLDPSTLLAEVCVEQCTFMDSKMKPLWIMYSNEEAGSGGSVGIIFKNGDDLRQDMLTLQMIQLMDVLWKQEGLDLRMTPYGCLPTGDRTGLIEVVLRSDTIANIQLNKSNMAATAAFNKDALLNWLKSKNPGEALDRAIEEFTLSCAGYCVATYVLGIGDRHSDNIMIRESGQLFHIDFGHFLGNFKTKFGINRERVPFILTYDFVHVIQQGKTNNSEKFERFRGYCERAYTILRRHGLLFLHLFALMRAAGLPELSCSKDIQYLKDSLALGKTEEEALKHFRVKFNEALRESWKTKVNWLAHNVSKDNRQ

Row | SMILES | IC50 (PIK3CG (human)) [µM] | IC50 (PIK3CD (Human)) [nM] | IC50 (PIK3CB (Human)) [µM]
1 | CC(C)Cc1cc(-n2c([C@H](C)Nc3ncnc(N)c3C#N)nc3cccc(Cl)c3c2=O)n[nH]1 | > 10 | – | –
2 | CC[C@H](Nc1ncnc2[nH]cc(F)c12)c1nc2c(Cl)ccc(Cl)c2c(=O)n1-c1cc[nH]n1 | – | 3 | –
3 | Nc1nc(N)c(Cl)c(N[C@H](c2nc3cccc(Cl)c3c(=O)n2-c2cc[nH]n2)C2CCC2)n1 | > 10 | – | –
4 | Cc1c[nH]nc1-n1c([C@@H](NC2=NC(N)=NC3=NN=C(Br)C32)C2CC2)nc2cccc(Cl)c2c1=O (stereo partly drawn) | > 10 | – | –
5 | C[C@H](Nc1nc(N)nc(N)c1C#N)c1nc2ccc(Cl)cc2c(=O)n1-c1cc[nH]n1 | 9.3 | 140 | –
6 | C[C@H](Nc1nc(N)nc(C(F)F)c1Cl)c1nc2cc(F)cc(F)c2c(=O)n1-c1cc[nH]n1 | – | – | > 10
7 | C[C@H](Nc1nc(N)nc(N)c1C#N)c1nc2c(C(F)F)cccc2c(=O)n1-c1cc[nH]n1 | > 10 | 9 | 0.004
8 | CC(C)[C@H](Nc1nc(N)nc(N)c1Cl)c1nc2cccc(Cl)c2c(=O)n1-c1cc[nH]n1 | 10 | – | –
9 | Nc1nc(N)c(Cl)c(N[C@H](c2nc3c(Cl)cc(F)cc3c(=O)n2-c2cc[nH]n2)C2CC2)n1 | > 10 | – | –
10 | C[C@H](Nc1nc(N)nc(C(F)F)c1Cl)c1nc2c(F)c(F)ccc2c(=O)n1-c1cc[nH]n1 | – | – | > 10
